Here are results for 8 molecules from PubChem BioAssay (NCI).

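The compound was tested at five concentrations on cells cultured in 96-well plates, with a 48-hour exposure period. At the TGI there is no net growth.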 Where only a bound is given, the exact number is not on record here.

Test systems include OVCAR-5 ovarian; COLO 205 colon; A549 NSCLC; HCC-2998 colon; MOLT-4 leukemia; UACC-62 melanoma; A498 renal; 786-0 renal; DU-145 prostate; TK-10 renal; BT-549 breast; U251 CNS; HCT-15 colon; MCF7 breast; NCI/ADR-RES ovarian; SNB-75 CNS; UACC-257 melanoma; SNB-19 CNS; SK-MEL-2 melanoma.
What all share (experiment): NCI anticancer screen, dose series, 48 h

Turning to `Cc1ccc(C2=Nn3c(nc4sc(C)c(C)c4c3=O)SC2)cc1`, the TGI in the experiment with OVCAR-5 ovarian, in the experiment with COLO 205 colon, with A549 NSCLC, in the experiment with HCC-2998 colon, in the experiment with MOLT-4 leukemia and in the experiment on UACC-62 melanoma was > 100 µM each time. Besides, the TGI in the experiment with A498 renal was > 100 µM; in the experiment with 786-0 renal it was > 100 µM; in the experiment with DU-145 prostate, > 100 µM; in the experiment with TK-10 renal, 85.3 µM; in the experiment with BT-549 breast, > 100 µM; in the experiment with U251 CNS, > 100 µM. The TGI in the experiment with HCT-15 colon, with MCF7 breast, with NCI/ADR-RES ovarian, with SNB-75 CNS and in the experiment with UACC-257 melanoma was > 100 µM in each case.
Turning to `CC1(C)CC(C2=NCCO2)CC(C)(C)N1`, the TGI in the experiment on OVCAR-5 ovarian, with COLO 205 colon, with A549 NSCLC, in the experiment with MOLT-4 leukemia, in the experiment on UACC-62 melanoma and with A498 renal was > 100 µM throughout. Also, the TGI in the experiment on 786-0 renal, in the experiment on DU-145 prostate, in the experiment on TK-10 renal, in the experiment on SNB-19 CNS, in the experiment on BT-549 breast and in the experiment on U251 CNS was > 100 µM each time. Besides, the TGI with HCT-15 colon is > 100 µM; in the experiment on MCF7 breast, 61.1 µM; in the experiment on SK-MEL-2 melanoma it was > 100 µM; in the experiment with NCI/ADR-RES ovarian it was > 100 µM; with SNB-75 CNS, > 100 µM; in the experiment with UACC-257 melanoma, > 100 µM.
Take `CCc1cccc(C(C)(C)C)c1NC(=S)N/C=C(/C#N)C(N)=O`: the TGI with OVCAR-5 ovarian, with COLO 205 colon, in the experiment with A549 NSCLC, in the experiment with HCC-2998 colon, with MOLT-4 leukemia and in the experiment with UACC-62 melanoma was > 100 µM each time. For the same molecule, the TGI with A498 renal, in the experiment with 786-0 renal, in the experiment on DU-145 prostate, in the experiment with SNB-19 CNS, in the experiment on BT-549 breast and in the experiment on U251 CNS was > 100 µM throughout. The TGI in the experiment on HCT-15 colon, with MCF7 breast, in the experiment on SK-MEL-2 melanoma, with NCI/ADR-RES ovarian, in the experiment on SNB-75 CNS and with UACC-257 melanoma was > 100 µM each time.
As to `CC1OC(OC2C(O)COC(OC3C(C)OC(OC4C(OC(=O)[C@]56CCC(C)(C)C[C@@H]5C5=CCC7[C@@]8(C)C[C@H](O)[C@H](OC9OC(CO)C(O)C(OC%10OC(CO)C(O)C(O)C%10O)C9O)[C@@](C)(CO)[C@@H]8CC[C@@]7(C)[C@]5(C)CC6)OCC(O)C4O)C(O)C3OC3OCC(O)(CO)C3O)C2O)C(O)C(O)C1O` (some centres not stated), the TGI was found to be 17.4 µM in the experiment on OVCAR-5 ovarian; 14.9 µM with COLO 205 colon; 13.9 µM in the experiment on A549 NSCLC; 20.8 µM in the experiment on HCC-2998 colon; 30.1 µM with MOLT-4 leukemia; 22.9 µM with UACC-62 melanoma. In addition, the TGI in the experiment on A498 renal was found to be 20.4 µM; with 786-0 renal, 15.4 µM; in the experiment with DU-145 prostate, 16.2 µM; with TK-10 renal it was 22.1 µM; in the experiment with SNB-19 CNS, 16.6 µM; in the experiment on BT-549 breast it was 13.3 µM. Further, the TGI in the experiment with U251 CNS came to 20.6 µM; in the experiment on HCT-15 colon it was 19.1 µM; in the experiment on MCF7 breast it was 29.4 µM; with NCI/ADR-RES ovarian, 16.7 µM; in the experiment with SNB-75 CNS, 21.3 µM; with UACC-257 melanoma, 20.9 µM.
`Cc1ccc([N+](=O)[O-])cc1S(=O)(=O)Nc1ccc(C2=NOC(c3ccco3)C2)cc1` (configuration not stated): the TGI in the experiment on OVCAR-5 ovarian stood at 52.2 µM; in the experiment with COLO 205 colon it was 80.9 µM; in the experiment on A549 NSCLC it was 59.7 µM; in the experiment with HCC-2998 colon, 31.9 µM; in the experiment on MOLT-4 leukemia, 46.6 µM; in the experiment with UACC-62 melanoma, 27.1 µM. The TGI in the experiment with A498 renal was 34.6 µM; with 786-0 renal it was 34.9 µM; in the experiment on DU-145 prostate, 39.3 µM; in the experiment on TK-10 renal, > 100 µM; in the experiment on SNB-19 CNS it was 37.9 µM; in the experiment with BT-549 breast, 39.2 µM. The TGI in the experiment on HCT-15 colon turned out to be 32 µM; with MCF7 breast it was 35.5 µM; with SK-MEL-2 melanoma, 33.8 µM; with NCI/ADR-RES ovarian it was 52.6 µM; with SNB-75 CNS it was 35.7 µM; with UACC-257 melanoma, 39.1 µM.
As for `Fc1ccc(C(OCCN2CCN(CCCCl)CC2)c2ccc(F)cc2)cc1`, the TGI in the experiment with OVCAR-5 ovarian is 63.9 µM; in the experiment on COLO 205 colon it was 32.7 µM; in the experiment with A549 NSCLC, > 100 µM; with HCC-2998 colon it was 42.5 µM; with MOLT-4 leukemia it was > 100 µM; in the experiment with UACC-62 melanoma, 40.7 µM. Also, the TGI is 46.4 µM in the experiment with A498 renal; 94.6 µM in the experiment on 786-0 renal; 73.7 µM in the experiment on DU-145 prostate; > 100 µM in the experiment on TK-10 renal; > 100 µM in the experiment on SNB-19 CNS; 83.6 µM in the experiment on BT-549 breast. In addition, the TGI was > 100 µM in the experiment with U251 CNS; 33.8 µM in the experiment with HCT-15 colon; 41.1 µM in the experiment on MCF7 breast; 52 µM in the experiment on SK-MEL-2 melanoma; 70.8 µM with NCI/ADR-RES ovarian; 47.5 µM in the experiment with UACC-257 melanoma.
Turning to `CCOC(=O)c1cc(=O)c2ccnc3c2n1CCS3`, the TGI in the experiment on OVCAR-5 ovarian, in the experiment with COLO 205 colon, in the experiment with A549 NSCLC, in the experiment on MOLT-4 leukemia, with UACC-62 melanoma and in the experiment with A498 renal was > 100 µM each time. Also, the TGI with 786-0 renal, in the experiment on DU-145 prostate, with TK-10 renal, with SNB-19 CNS, in the experiment with BT-549 breast and in the experiment on U251 CNS was > 100 µM each time. The TGI in the experiment with HCT-15 colon, in the experiment on MCF7 breast, in the experiment on SK-MEL-2 melanoma, in the experiment on NCI/ADR-RES ovarian, in the experiment on SNB-75 CNS and with UACC-257 melanoma was > 100 µM throughout.
As for `COC(=O)C1CC2CCC1(O[Si](C(C)C)(C(C)C)C(C)C)C(O)C2` (configuration not stated), the TGI in the experiment on OVCAR-5 ovarian was 27.2 µM; with COLO 205 colon, 71.2 µM; with A549 NSCLC, 33.4 µM; with HCC-2998 colon, 46 µM; in the experiment with MOLT-4 leukemia it was 30.1 µM; in the experiment on UACC-62 melanoma, > 100 µM. In addition, the TGI is > 100 µM in the experiment on A498 renal; 31.5 µM in the experiment on 786-0 renal; 34.9 µM in the experiment on DU-145 prostate; 44.2 µM with SNB-19 CNS; 79.3 µM with BT-549 breast; 31.9 µM in the experiment with U251 CNS. The TGI was 30.6 µM in the experiment with HCT-15 colon; 28.4 µM in the experiment with MCF7 breast; 32.1 µM with SK-MEL-2 melanoma; > 100 µM in the experiment with NCI/ADR-RES ovarian; > 100 µM with SNB-75 CNS.
